# From ChEMBL document CHEMBL1145763, “Design, synthesis and photochemical properties of caged bile acids” (Bioorg Med Chem Lett, 2003)
# Assay: Solubility in 100 mM Tris pH(8.5)/ 30% PEG 6000/200 mM NaOAc
# Type: physicochemical
row,Structure (SMILES),solubility
1,C[C@H](CCC(=O)O)[C@H]1CC[C@H]2[C@@H]3[C@H](O)CC4C[C@H](OCc5ccccc5[N+](=O)[O-])CC[C@]4(C)[C@H]3CC[C@]12C (some centres undefined),5000 µM
2,C[C@H](CCC(=O)NCC(=O)O)[C@H]1CC[C@H]2[C@@H]3[C@H](O)CC4C[C@H](OCc5ccccc5[N+](=O)[O-])CC[C@]4(C)[C@H]3CC[C@]12C (some centres undefined),4000 µM
3,COc1cc(CO[C@@H]2CC[C@@]3(C)C(C2)C[C@@H](O)[C@H]2[C@@H]4CC[C@H]([C@H](C)CCC(=O)O)[C@@]4(C)[C@@H](O)C[C@@H]23)c([N+](=O)[O-])cc1OC (some centres undefined),1000 µM
4,C[C@H](CCC(=O)O)[C@H]1CC[C@H]2[C@@H]3[C@H](O)CC4C[C@H](OCc5ccccc5[N+](=O)[O-])CC[C@]4(C)[C@H]3C[C@H](O)[C@]12C (some centres undefined),2000 µM
